Earlier results on five compounds are cited in patent US20240423896A1, “METHOD FOR IMPROVING THE TACTILE SENSATION OF DYED KERATINOUS FIBRES, IN PARTICULAR HUMAN HAIR” (HENKEL AG & CO. KGAA, priority 2021, published 2024).

The conditions of this data set: 25° C.

For `CCN(Cc1cccc(S(=O)(=O)[O-])c1)c1ccc(C(=C2C=CC(=[N+](CC)Cc3cccc(S(=O)(=O)[O-])c3)C=C2)c2ccccc2S(=O)(=O)[O-])cc1.[Na+].[Na+]` [Acid Blue 9, disodium salt of 2-({4-[N-ethyl(3-sulfonatobenzyl]amino]phenyl}{4-(N-ethyl(3-sulfonatobenzyl)imino]-2,5-cyclohexadien-1-ylidene}methyl)-benzenesulfonate], the water solubility result was “more than 20 wt. %”.
Regarding `O=C([O-])c1c(Cl)c(Cl)c(Cl)c(Cl)c1-c1c2cc(Br)c(=O)c(Br)c-2oc2c(Br)c([O-])c(Br)cc12.[Na+].[Na+]` [Acid Red 92, disodium salt of 3,4,5,6-tetrachloro-2-(1,4,5,8-tetrabromo-6-hydroxy-3-oxanthene-9-yl) benzoic acid], the solubility in water result is reported as “greater than 10 g/L”.
As to `Nc1cc(S(=O)(=O)[O-])cc2cc(S(=O)(=O)[O-])c(N=Nc3ccccc3)c(O)c12.[Na+].[Na+]` [Acid Red 33, disodium salt of 5-amino-4-hydroxy-3-(phenylazo)-naphthalene-2,7-disulfonate], the solubility in water is 2500 µg/mL.
In the case of `O=S(=O)([O-])c1ccc(N=Nc2c(O)ccc3ccccc23)cc1.[Na+]` [Acid Orange 7, sodium salt of 4-[(2-hydroxy-1-naphthyl)azo]benzene sulphonate], the solubility in water entry was “more than 7 g/L”.
Consider `O=C([O-])C1=NN(c2ccc(S(=O)(=O)[O-])cc2)C(=O)C1N=Nc1ccc(S(=O)(=O)[O-])cc1.[Na+].[Na+].[Na+]` (centres unmarked) [Acid Yellow 23, trisodium salt of 4,5-dihydro-5-oxo-1-(4-sulfophenyl)-4-((4-sulfophenyl)azo)-1H-pyrazole-3-carboxylic acid], for which the “solubility in water (in words)” value was “readily soluble in water”.
